# In PubChem BioAssay AID1845215 (Molecular Pharmacology Branch, DTP, NCI, 2023):
# Test system: SW 1271 complex tumor spheroid viability
# Experiment: Anticancer human tumor SW 1271 cell line growth inhibition;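 further: spheroids exposed to agents for seven days before readout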;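 on viability, T/C: percent of DMSO vehicle control luminescence so 100% = vehicle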
# Conditions: for IC50: curve of first compound; for viability, T/C: stronger effect = lower value
# Outline: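 Complex tumor spheroids combined malignant cells with endothelial cells and mesenchymal stem cells. DNA-damaging drugs and DNA repair inhibitors were tested alone and in combination, at half-log dilutions down from clinical Cmax (top 10 microM if Cmax unknown), 0.25% DMSO final.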
# [1] = second compound 1 µM, first compound 0.0316 µM
# [2] = second compound 1 µM, first compound 0.1 µM
# [3] = second compound 1 µM, first compound 0.316 µM
# [4] = second compound 1 µM, first compound 1 µM
# [5] = second compound 1 µM, first compound 3.16 µM
# [6] = second compound 1 µM, first compound 10 µM
# [7] = second compound 3.16 µM, first compound 0.0316 µM
# [8] = second compound 3.16 µM, first compound 0.1 µM
# [9] = second compound 3.16 µM, first compound 0.316 µM
# [10] = second compound 3.16 µM, first compound 1 µM
# [11] = second compound 3.16 µM, first compound 3.16 µM
# [12] = second compound 3.16 µM, first compound 10 µM
# [13] = second compound 10 µM, first compound 0.0316 µM
# [14] = second compound 10 µM, first compound 0.1 µM
# [15] = second compound 10 µM, first compound 0.316 µM
# [16] = second compound 10 µM, first compound 1 µM
# [17] = second compound 10 µM, first compound 3.16 µM
# [18] = second compound 10 µM, first compound 10 µM
# [19] = second compound 31.6 µM, first compound 0.0316 µM
# [20] = second compound 31.6 µM, first compound 0.1 µM
# [21] = second compound 31.6 µM, first compound 0.316 µM
# [22] = second compound 31.6 µM, first compound 1 µM
# [23] = second compound 31.6 µM, first compound 3.16 µM
# [24] = second compound 31.6 µM, first compound 10 µM
# [25] = second compound 100 µM, first compound 0.0316 µM
# [26] = second compound 100 µM, first compound 0.1 µM
# [27] = second compound 100 µM, first compound 0.316 µM
# [28] = second compound 100 µM, first compound 1 µM
# [29] = second compound 100 µM, first compound 3.16 µM
# [30] = second compound 100 µM, first compound 10 µM
Compound,IC50 (second compound 1 µM),IC50 (second compound 3.16 µM),IC50 (second compound 10 µM),IC50 (second compound 31.6 µM),IC50 (second compound 100 µM),"viability, T/C [1]","viability, T/C [2]","viability, T/C [3]","viability, T/C [4]","viability, T/C [5]","viability, T/C [6]","viability, T/C [7]","viability, T/C [8]","viability, T/C [9]","viability, T/C [10]","viability, T/C [11]","viability, T/C [12]","viability, T/C [13]","viability, T/C [14]","viability, T/C [15]",other results
CC(C)n1c(=O)n(C)c2cnc3cc(F)c(-c4ccc(OCCCN5CCCCC5)nc4)cc3c21 + Cn1nnc2c(C(N)=O)ncn2c1=O,> 10 µM,> 10 µM,7.49 µM,4.87 µM,1.04 µM,99.6%,90.9%,93.2%,101%,99.6%,54.7%,101%,92.5%,98.8%,102%,88.4%,50.9%,87.1%,97.7%,94.3%,"viability, T/C [16]: 79.9%; viability, T/C [17]: 75.6%; viability, T/C [18]: 41.6%; viability, T/C [19]: 93%; viability, T/C [20]: 84.5%; viability, T/C [21]: 86.1%; viability, T/C [22]: 76.8%; viability, T/C [23]: 63.5%; viability, T/C [24]: 29.5%; viability, T/C [25]: 70.5%; viability, T/C [26]: 69.6%; viability, T/C [27]: 64.2%; viability, T/C [28]: 51.5%; viability, T/C [29]: 31%; viability, T/C [30]: 24.9%"
CC1COCCN1c1cc(-c2ccnn2C)c2ccnc(-c3ccn[nH]3)c2n1 (stereo not given) + Cn1nnc2c(C(N)=O)ncn2c1=O,0.0673 µM,0.0701 µM,0.0678 µM,0.0382 µM,< 0.0316 µM,71.4%,38.7%,15.1%,6.03%,3.67%,3.45%,76.6%,38.2%,11.3%,5.45%,3.38%,2.94%,73.8%,37.9%,12.3%,"viability, T/C [16]: 5.29%; viability, T/C [17]: 2.98%; viability, T/C [18]: 3.83%; viability, T/C [19]: 55.4%; viability, T/C [20]: 23.2%; viability, T/C [21]: 9.1%; viability, T/C [22]: 4.96%; viability, T/C [23]: 3.48%; viability, T/C [24]: 3.25%; viability, T/C [25]: 33.5%; viability, T/C [26]: 12.6%; viability, T/C [27]: 6.3%; viability, T/C [28]: 3.95%; viability, T/C [29]: 3.48%; viability, T/C [30]: 2.85%"
COc1cc(C)[nH]c(=O)c1CN1CCc2c(Cl)cc(C(OC)C3COC3)c(Cl)c2C1=O (stereo not given) + Cn1nnc2c(C(N)=O)ncn2c1=O,> 10 µM,> 10 µM,> 10 µM,> 10 µM,> 10 µM,92.5%,90.5%,91.2%,86.1%,77.5%,76.7%,98.1%,90.2%,90.3%,94.4%,85%,82.3%,98.2%,93.5%,96.1%,"viability, T/C [16]: 83.8%; viability, T/C [17]: 87.8%; viability, T/C [18]: 81.4%; viability, T/C [19]: 97.1%; viability, T/C [20]: 89.8%; viability, T/C [21]: 99.3%; viability, T/C [22]: 100%; viability, T/C [23]: 88.5%; viability, T/C [24]: 80.2%; viability, T/C [25]: 88.7%; viability, T/C [26]: 96.3%; viability, T/C [27]: 84.2%; viability, T/C [28]: 80.7%; viability, T/C [29]: 77.3%; viability, T/C [30]: 76.1%"
COc1ccc([C@@H](O)c2cc(-c3ncnc4cc(N5CCOCC5)ccc34)c(F)cc2Cl)nn1 + Cn1nnc2c(C(N)=O)ncn2c1=O,0.799 µM,1.52 µM,1.81 µM,1.41 µM,0.808 µM,95.7%,89.6%,91.7%,39.6%,38.3%,11%,115%,97.8%,82.5%,60.7%,32.3%,10%,97.1%,103%,85.2%,"viability, T/C [16]: 65.1%; viability, T/C [17]: 36.2%; viability, T/C [18]: 10.9%; viability, T/C [19]: 101%; viability, T/C [20]: 96.2%; viability, T/C [21]: 93.4%; viability, T/C [22]: 55.6%; viability, T/C [23]: 30.3%; viability, T/C [24]: 10.2%; viability, T/C [25]: 83.8%; viability, T/C [26]: 82.3%; viability, T/C [27]: 66.8%; viability, T/C [28]: 42.9%; viability, T/C [29]: 28.6%; viability, T/C [30]: 9.15%"
